Reference: paper PMC5125864 (Molecular and biochemical parasitology, 2016)
pIC50: −log10 of the molar value.

Biological target: T1, ehRad51 (Entamoeba histolytica, UniProt C4M4K4)
T1 sequence (C4M4K4 1-366): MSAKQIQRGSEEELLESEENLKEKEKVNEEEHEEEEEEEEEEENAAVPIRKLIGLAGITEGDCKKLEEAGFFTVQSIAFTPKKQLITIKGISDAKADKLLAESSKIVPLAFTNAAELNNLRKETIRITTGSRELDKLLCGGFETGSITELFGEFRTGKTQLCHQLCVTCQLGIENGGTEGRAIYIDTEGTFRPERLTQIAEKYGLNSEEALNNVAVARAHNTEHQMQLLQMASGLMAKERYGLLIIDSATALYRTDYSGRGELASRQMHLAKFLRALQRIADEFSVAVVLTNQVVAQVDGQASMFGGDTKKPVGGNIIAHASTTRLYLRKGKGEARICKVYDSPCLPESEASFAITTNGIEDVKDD
Assay: oligonucleotide DNA strand exchange
Assay type: biochemical

`O=S(=O)(O)c1cc(N=C=S)ccc1C=Cc1ccc(N=C=S)cc1S(=O)(=O)O` [DIDS, 4,4′-diisothiocyanostilbene-2,2′-disulfonic acid] gave a pIC50 of 4.73.
